Target: T1, His6-PraR (Azorhizobium caulinodans, UniProt A8IG10)
T1 construct: full praR ORF, N-terminal His6 tag (pCold I, plasmid pTAC99), expressed in E. coli BLR(DE3), Ni-bead purified
Experiment: EMSA, FITC-labelled reb promoter dsDNA probe
Conditions: inhibits PraR binding to reb promoter DNA; 2OG 0.01 to 10 mM; pH 8.0, 5 mM MgCl2, 26 °C; direct 2OG binding to PraR not measured

T1 sequence (A8IG10 entry or part of it): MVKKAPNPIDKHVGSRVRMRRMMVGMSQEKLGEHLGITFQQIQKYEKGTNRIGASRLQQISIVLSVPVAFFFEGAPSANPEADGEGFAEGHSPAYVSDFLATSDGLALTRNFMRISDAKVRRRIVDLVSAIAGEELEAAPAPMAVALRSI

## O=C(O)CCC(=O)C(=O)O [2-oxoglutarate]
  EMSA, FITC-labelled reb promoter dsDNA probe: binding of PraR to the reb promoter dsDNA probe decreased with increasing 2OG concentration
